According to patent US20080249077A1, “17.Beta.-Fluoromethoxycarbonyl-Androst-4-En-3-One Compounds With a 17.Alpha.-Carbonate Sustituent” (priority 2005, published 2008):

Legend:
Type in all cases: cell-based
[1] = biological target: T1, glucocorticoid receptor (Homo sapiens, UniProt P04150); assay: Assay for transactivation activity of the glucocorticoid agonists (MMTV-LTR renilla luciferase reporter in A549 cells); settings: compound 6 hour at 37° C., read-out: maximal response relative to Dexamethasone (100%) (transactivation)
T1 construct: A549 cells stably transfected with a reporter gene; endogenous in cells; host or cells: A549 cells
T1 sequence (P04150 1-777): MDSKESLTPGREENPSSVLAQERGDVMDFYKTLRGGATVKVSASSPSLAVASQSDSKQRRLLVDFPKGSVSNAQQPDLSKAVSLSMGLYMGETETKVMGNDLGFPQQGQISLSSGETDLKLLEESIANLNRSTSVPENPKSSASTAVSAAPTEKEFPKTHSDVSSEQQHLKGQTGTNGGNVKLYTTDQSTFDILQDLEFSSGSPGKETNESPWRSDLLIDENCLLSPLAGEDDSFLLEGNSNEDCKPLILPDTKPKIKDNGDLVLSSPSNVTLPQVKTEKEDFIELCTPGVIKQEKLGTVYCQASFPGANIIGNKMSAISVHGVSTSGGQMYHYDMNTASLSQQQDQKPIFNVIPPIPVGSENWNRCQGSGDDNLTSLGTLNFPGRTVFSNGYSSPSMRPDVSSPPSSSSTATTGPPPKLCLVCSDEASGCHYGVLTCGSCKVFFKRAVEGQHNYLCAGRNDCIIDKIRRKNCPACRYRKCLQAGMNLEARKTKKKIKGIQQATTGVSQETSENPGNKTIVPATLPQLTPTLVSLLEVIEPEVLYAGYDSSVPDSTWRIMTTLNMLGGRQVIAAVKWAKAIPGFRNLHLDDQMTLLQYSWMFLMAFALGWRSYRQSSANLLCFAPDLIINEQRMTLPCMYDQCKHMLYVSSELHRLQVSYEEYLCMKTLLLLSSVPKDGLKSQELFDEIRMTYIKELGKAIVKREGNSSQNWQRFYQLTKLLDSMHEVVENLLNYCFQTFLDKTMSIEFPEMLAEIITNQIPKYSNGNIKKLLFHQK
Protocol: Assay for Transactivation Activity of the Glucocorticoid Agonists
The functional assay based on that described by R. J. H. Austin et al., Eur Resp J. (2002), 20, 1386-1392 measures the ability of compounds to directly transactivate gene expression. A549 cells stably transfected with a reporter gene containing the glucocorticoid responsive region of the mouse mammary tumour virus long terminal repeat (MMTV-LTR) coupled to renilla luciferase were treated with test compounds at appropriate doses for 6 hour at 37° C. The amount of luciferase activity present within the cells is then determined by measuring the light emitted following incubation with a suitable substrate. Dose response curves were constructed from which EC50 values were estimated and from which maximal responses are calculated relative to Dexamethasone (100%).

[2] = biological target: T2, Progesterone Receptor (Homo sapiens, UniProt P06401); assay: Assay for progesterone receptor activity (CV-1 cells transduced with PRb-BacMam and MMTV-BacMam, Steady Glo); settings: 24 h, read-out: pEC50 (progesterone receptor) (converted)
T2 construct: expressed in transfected cells; host or cells: CV-1 cells transduced with PRb-BacMam
T2 sequence (P06401 1-933): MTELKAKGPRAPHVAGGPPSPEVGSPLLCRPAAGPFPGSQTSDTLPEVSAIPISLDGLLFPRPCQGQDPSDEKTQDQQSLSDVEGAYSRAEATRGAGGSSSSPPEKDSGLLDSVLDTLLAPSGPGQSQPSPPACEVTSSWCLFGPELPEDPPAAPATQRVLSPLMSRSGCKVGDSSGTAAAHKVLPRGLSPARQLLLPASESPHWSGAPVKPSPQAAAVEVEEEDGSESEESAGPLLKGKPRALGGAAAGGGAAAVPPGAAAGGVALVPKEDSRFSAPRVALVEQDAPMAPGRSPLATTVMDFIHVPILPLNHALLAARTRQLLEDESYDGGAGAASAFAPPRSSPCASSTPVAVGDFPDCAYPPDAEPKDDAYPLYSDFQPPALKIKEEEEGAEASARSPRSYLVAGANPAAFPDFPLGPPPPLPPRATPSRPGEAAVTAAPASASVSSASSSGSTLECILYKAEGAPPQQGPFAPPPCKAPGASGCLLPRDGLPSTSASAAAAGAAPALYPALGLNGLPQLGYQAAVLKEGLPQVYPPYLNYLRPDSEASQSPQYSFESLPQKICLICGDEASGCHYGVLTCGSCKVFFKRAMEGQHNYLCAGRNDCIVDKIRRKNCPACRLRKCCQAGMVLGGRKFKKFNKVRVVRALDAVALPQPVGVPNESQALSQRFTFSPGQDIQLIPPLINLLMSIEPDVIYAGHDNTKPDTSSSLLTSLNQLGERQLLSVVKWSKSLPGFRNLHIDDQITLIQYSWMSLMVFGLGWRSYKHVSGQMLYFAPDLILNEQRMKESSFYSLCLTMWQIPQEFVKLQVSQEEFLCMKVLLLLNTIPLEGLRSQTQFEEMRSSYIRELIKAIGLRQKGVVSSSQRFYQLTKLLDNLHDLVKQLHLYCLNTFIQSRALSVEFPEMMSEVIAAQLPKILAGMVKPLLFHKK
Protocol: Assay for Progesterone Receptor Activity
Cells were diluted in DMEM containing 10% Hyclone, 2 mM […] and 1% Pen/Strep at 140 cells/μl and transduced with 10% PRb-BacMam and 10% MMTV-BacMam. […] of suspension cells were dispensed to each well of white Nunc 384-well plates, containing compounds at the required concentration. After 24 h 10 μl of Steady Glo were added to each well of the plates. Plates were incubated in the dark for 10 min before reading them on a Viewlux reader. Dose response curves were constructed from which pEC50 values were estimated.

[3] = biological target: T1, glucocorticoid receptor; assay: Assay for transrepression activity of the glucocorticoid agonists (NF-κB responsive ELAM promoter-sPAP reporter, TNF-stimulated A549 cells); settings: compound 1 hour at 37° C., then TNF 10 ng/ml for 16 hours, read-out: pIC50 (transrepression) (converted)
Protocol: Assay for Transrepression Activity of the Glucocorticoid Agonists
A549 cells stably transfected with a reporter gene containing the NF-κB responsive elements from the ELAM gene promoter coupled to sPAP (secreted alkaline phosphatase) are treated with test compounds at appropriate doses for 1 hour at 37° C. The cells are then stimulated with tumour necrosis factor (TNF, 10 ng/ml) for 16 hours, at which time the amount of alkaline phosphatase produced is measured by a standard colourimetric assay. Dose response curves were constructed from which EC50 values were estimated.

Compound | Emax [1] [%] | EC50 [2] [nM] | IC50 [3] [nM]
C[C@@H]1[C@H]2C[C@@H](C[C@H]1OC(=O)O[C@]1(C(=O)OCF)[C@H](C)C[C@H]3[C@@H]4C[C@H](F)C5=CC(=O)C=C[C@]5(C)[C@@]4(F)[C@@H](O)C[C@@]31C)C2(C)C [Example 34, Fluoromethyl(6α,11β,16α,17α)-6,9-difluoro-11-hydroxy-16-methyl-3-oxo-17-[({[(1R,2R,3R,5S)-2,6,6-trimethylbicyclo[3.1.1]hept-3-yl]oxy}carbonyl)oxy]androsta-1,4-diene-17-carboxylate] | < 25 | > 10 | –
CCC(C)(C)OC(=O)O[C@]1(C(=O)OCF)[C@H](C)C[C@H]2[C@@H]3C[C@H](F)C4=CC(=O)C=C[C@]4(C)[C@@]3(F)[C@@H](O)C[C@@]21C [Example 2, Fluoromethyl(6α,11β,16α,17α)-17-({[(1,1-dimethylpropyl)oxy]carbonyl}oxy)-6,9-difluoro-11-hydroxy-16-methyl-3-oxoandrosta-1,4-diene-17-carboxylate] | – | > 10 | < 0.1
CC(C)[C@H]1CC[C@H](C)C[C@@H]1OC(=O)O[C@]1(C(=O)OCF)[C@H](C)C[C@H]2[C@@H]3C[C@H](F)C4=CC(=O)C=C[C@]4(C)[C@@]3(F)[C@@H](O)C[C@@]21C [Example 32, Fluoromethyl(6α,11β,16α,17α)-6,9-difluoro-11-hydroxy-16-methyl-17-[({[(1 S,2R,5S)-5-methyl-2-(1-methylethyl)cyclohexyl]oxy}carbonyl)oxy]-3-oxoandrosta-1,4-diene-17-carboxylate] | < 25 | > 10 | –
C[C@@H]1C[C@H]2[C@@H]3C[C@H](F)C4=CC(=O)C=C[C@]4(C)[C@@]3(F)[C@@H](O)C[C@]2(C)[C@@]1(OC(=O)OC1CCCCCC1)C(=O)OCF [Example 14, Fluoromethyl(6α,11β,16α,17α)-17-{[(cycloheptyloxy)carbonyl]oxy}-6,9-difluoro-11-hydroxy-16-methyl-3-oxoandrosta-1,4-diene-17-carboxylate] | < 25 | > 10 | –
CCC(OC(=O)O[C@]1(C(=O)OCF)[C@H](C)C[C@H]2[C@@H]3C[C@H](F)C4=CC(=O)C=C[C@]4(C)[C@@]3(F)[C@@H](O)C[C@@]21C)C(C)(C)C (stereo partly drawn) [Example 38, Fluoromethyl(6α,11β,16α,17α)-17-({[(1-ethyl-2,2-dimethylpropyl)oxy]carbonyl}oxy)-6,9-difluoro-11-hydroxy-16-methyl-3-oxoandrosta-1,4-diene-17-carboxylate] | < 25 | > 10 | –
CCC(OC(=O)O[C@]1(C(=O)OCF)[C@H](C)C[C@H]2[C@@H]3C[C@H](F)C4=CC(=O)C=C[C@]4(C)[C@@]3(F)[C@@H](O)C[C@@]21C)C(C)C (stereo partly drawn) [Example 8, Fluoromethyl(6α,11β,16α,17α)-17-({[(1-ethyl-2-methylpropyl)oxy]carbonyl}oxy)-6,9-difluoro-11-hydroxy-16-methyl-3-oxoandrosta-1,4-diene-17-carboxylate] | < 25 | > 10 | < 0.1
C[C@@H]1C[C@H]2[C@@H]3C[C@H](F)C4=CC(=O)C=C[C@]4(C)[C@@]3(F)[C@@H](O)C[C@]2(C)[C@@]1(OC(=O)O[C@@H]1[C@@H]2CC[C@@H](C2)C1(C)C)C(=O)OCF [Example 30, Fluoromethyl(6α,11β,16α,17α)-17-[({[(1R,2R,4S)-3,3-dimethylbicyclo[2.2.1]hept-2-yl]oxy}carbonyl)oxy]-6,9-difluoro-11-hydroxy-16-methyl-3-oxoandrosta-1,4-diene-17-carboxylate] | < 25 | > 10 | < 0.1
